Patent EP0369035A1, “AGENT FOR TREATING PANCREATITIS OR THE LIKE” (priority 1988, dated 1989)

Experiments:
[1] = test system: experimental pancreatitis; assay: Effect on experimental pancreatitis (sodium taurochorate + trypsin into the common bile duct), survival ratio; assay type: in vivo, SD-rats; conditions: 80 μg/kg/min. x 80 min. continuous infusion, rat
Text: [II] Effect on experimental pancreatitis
SD-rats, body weight of about 200 g were, starved overnight, and 10 to 24 animals were used in one group. Sodium pentobarbital was intraperioneally administered to anesthetize each rat, and then a cannula was inserted to the femoral vein for the administration of the test substance. After abdominal surgery, the bile duct was blocked at a part thereof proximate to the liver, by a clip, a polyethylene tube was inserted to the common bile duct at a part thereof most proximate to the duodenum, and 0.1 ml of solution containing 2 mg sodium taurochorate and 1000 U trypsin dissolved in physiological saline was injected retrogrodely. After removal of the clip and tube, the common bile duct was ligated and the abdomen was closed. Note, the test substance was dissolved in an injective 5% glucose solution, and in the case of a continuous infusion, the solution was administered over 80 minutes starting from 10 minutes before the generation of pancreatitis. In the case of oral administration, the test substance was administered through an oral catheter 30 minutes before the generation of pancreatitis. After 24 hours and 48 hours from the generation of pancreatitis, the survival ratio of the animals was calculated and compared with a control group.

human plasmin [2] = target: T1, human plasmin (Homo sapiens, UniProt P00747); assay: Anti-plasmin activity: inhibition of S-2251 degradation; assay type: biochemical; conditions: substrate S-2251, 37°C, pH7.4; read-out: Plasmin S-2251 (I50)
T1 construct: 50 µl of 0.2 casein units/ml of human plasmin
T1 sequence (P00747 581-810 limits assumed): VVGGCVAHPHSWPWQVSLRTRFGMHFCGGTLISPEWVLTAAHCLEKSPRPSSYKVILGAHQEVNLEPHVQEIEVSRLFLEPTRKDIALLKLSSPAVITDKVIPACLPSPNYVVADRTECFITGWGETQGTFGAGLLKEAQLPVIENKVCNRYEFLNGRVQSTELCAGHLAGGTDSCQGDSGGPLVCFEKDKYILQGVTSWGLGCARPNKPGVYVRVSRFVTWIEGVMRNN
T1 sequence (P00747 97-580 partner limits assumed): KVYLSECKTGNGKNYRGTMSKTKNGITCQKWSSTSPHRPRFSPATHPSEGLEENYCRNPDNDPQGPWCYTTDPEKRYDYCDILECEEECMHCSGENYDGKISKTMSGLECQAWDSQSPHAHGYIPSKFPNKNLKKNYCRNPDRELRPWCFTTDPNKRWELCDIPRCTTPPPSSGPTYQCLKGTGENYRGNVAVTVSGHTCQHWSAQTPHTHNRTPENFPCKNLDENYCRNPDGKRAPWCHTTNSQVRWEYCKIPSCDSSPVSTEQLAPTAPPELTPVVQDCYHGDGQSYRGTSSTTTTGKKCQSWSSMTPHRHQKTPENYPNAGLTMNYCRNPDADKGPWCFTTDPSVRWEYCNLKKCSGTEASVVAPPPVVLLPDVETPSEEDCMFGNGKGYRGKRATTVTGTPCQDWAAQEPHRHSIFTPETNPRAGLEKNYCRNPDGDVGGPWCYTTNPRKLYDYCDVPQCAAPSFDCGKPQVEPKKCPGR
Protocol: ii) Assay method of inhibition of S-2251 degradation
The test substance was dissolved in a 0.05 M Tris-HC1 (pH7.4) buffer to make a total volume of 400 µl, and 50 µl of a 3 mM S-2251 solution was added to the solution. The mixture was incubated at 37°C for 5 minutes in an incubator, and after the addition of 50 µl of 0.2 casein units/ml of human plasmin, and incubation at 37°C for 4 minutes, the reaction was terminated by an addition of 50 µl of 50% acetic acid.

human plasmin [3] = target: T1, human plasmin; assay: Anti-plasmin activity: inhibition of fibrinolysis (fibrin clot lysis time); assay type: biochemical; conditions: concentration giving a fibrin clot lysis time twice that of control, 37°C, pH7.4; read-out: Plasmin Fibrin (I50)
human plasma kallikrein = target: T2, human plasma kallikrein (Homo sapiens, UniProt P03952); assay: Anti-plasma kallikrein activity: inhibition of S-2302 degradation; assay type: biochemical; conditions: substrate S-2302, 37°C, pH 7.8; read-out: Plasma kallikrein S-2302 (I50)
T2 construct: 50 µl of 0.12 units/ml human plasma kallikrein solution
T2 sequence (P03952 391-638 limits assumed): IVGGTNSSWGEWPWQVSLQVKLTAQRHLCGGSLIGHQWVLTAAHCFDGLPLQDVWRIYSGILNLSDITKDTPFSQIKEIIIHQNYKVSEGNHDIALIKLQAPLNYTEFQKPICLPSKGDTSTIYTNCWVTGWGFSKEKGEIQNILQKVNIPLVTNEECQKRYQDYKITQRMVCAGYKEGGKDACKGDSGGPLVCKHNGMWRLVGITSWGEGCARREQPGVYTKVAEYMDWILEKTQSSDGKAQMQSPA
T2 sequence (P03952 20-390 partner limits assumed): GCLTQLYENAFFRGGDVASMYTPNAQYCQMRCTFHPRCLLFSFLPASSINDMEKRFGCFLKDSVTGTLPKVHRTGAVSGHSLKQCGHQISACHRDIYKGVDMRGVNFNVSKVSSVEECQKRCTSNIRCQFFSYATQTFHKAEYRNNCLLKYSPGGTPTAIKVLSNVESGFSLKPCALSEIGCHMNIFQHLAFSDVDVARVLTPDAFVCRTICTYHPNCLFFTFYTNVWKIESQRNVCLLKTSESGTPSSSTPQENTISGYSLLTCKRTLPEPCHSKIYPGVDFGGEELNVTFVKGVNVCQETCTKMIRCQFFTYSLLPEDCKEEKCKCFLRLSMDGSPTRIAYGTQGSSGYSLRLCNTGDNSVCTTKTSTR
Protocol: 2) Assay of anti-plasma kallikrein activity Assay method of inhibition of S-2302 degradation
The test substance was dissolved in a 0.05 M Tris-HC1 (pH 7.8) buffer to make a total volume of 400 µl, and 50 µl of a 2 mM S-2302 solution was added to the solution. After incubation at 37°C for 5 minutes in an incubator, an addition of 50 µl of 0.12 units/ml human plasma kallikrein solution, and incubation at 37°C for 5 minutes, the reaction was terminated by an addition of 50 µl of 50% acetic acid.

in vivo = conditions: mouse, intravenous, ICR male mice, up-and-down method, read-out: Acute toxicity (LD50)
Protocol: ICR male mice 5 to 10 weeks old were used. The test substance was dissolved in a 5% dimethylsulfoxide aqueous solution, and the solution was intravenously administered in an amount of 0.1 to 0.2 ml/10 g body weight. An LD50 value was calculated by up-and-down method.

experimental shock = assay: Effect on experimental shock (endotoxin-induced), survival ratio; assay type: in vivo, ICR-mice; conditions: dose of 30 mg/kg intraperitoneally 15 minutes before endotoxin 40 mg/kg, mouse
Protocol: [IV] Effect on experimental shock
ICR-mice, body weight of about 25 g, were starved overnight. The test substance was dissolved in an injective 5% glucose solution and intraperioneally administered, and 15 minutes later, endotoxin (E. coli 0127:B8, Difco, U.S.) dissolved in a physiological saline was intraperioneally administered to an amount of 40 mg/kg body weight.

human urokinase = human urokinase (Homo sapiens, UniProt P00749); assay: Anti-urokinase activity: inhibition of S-2444 degradation; assay type: biochemical; conditions: substrate S-2444, 37°C, pH 8.8; read-out: Urokinase S-2444 (I50)
Protocol: 3) Assay of anti-urokinase activity Assay method of inhibition of S-2444 degradation
The test substance was dissolved in a 0.05 M Tris-HC1 (pH 8.8) buffer to make a total volume of 400 µl, and 50 µl of a 1 mM S-2444 solution was added to the mixture. After incubation at 37°C for 5 minutes in an incubator, an addition of 50 µl of 500 units/ml human urokinase solution, and incubation at 37°C for 5 minutes, the reaction was terminated by an addition of 50 µl of 50% acetic acid.

bovine factor Xa = target: T3, bovine factor Xa (Bos taurus, UniProt P00743); assay: Anti-FXa activity: inhibition of S-2222 degradation; assay type: biochemical; conditions: substrate S-2222, 37°C, pH 8.3; read-out: FXa S-2222 (I50)
T3 construct: 0.05 ml of 0.3 vial/ml bovine factor Xa
T3 sequence (P00743 234-492 limits assumed): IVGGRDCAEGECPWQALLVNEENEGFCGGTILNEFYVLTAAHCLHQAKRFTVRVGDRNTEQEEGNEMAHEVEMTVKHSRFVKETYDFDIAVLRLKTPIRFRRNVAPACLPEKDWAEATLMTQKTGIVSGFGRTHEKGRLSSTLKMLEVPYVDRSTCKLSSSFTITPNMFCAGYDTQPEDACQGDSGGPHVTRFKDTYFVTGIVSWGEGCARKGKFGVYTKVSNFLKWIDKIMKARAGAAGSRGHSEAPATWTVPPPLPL
T3 sequence (P00743 41-180 partner limits assumed): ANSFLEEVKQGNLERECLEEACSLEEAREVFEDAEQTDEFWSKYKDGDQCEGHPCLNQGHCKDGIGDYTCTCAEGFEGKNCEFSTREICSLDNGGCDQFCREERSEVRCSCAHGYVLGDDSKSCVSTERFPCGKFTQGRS
Protocol: 4) Assay of anti-FXa activity Assay method of inhibition of S-2222 degradation
To 0.4 ml of the test substance dissolved in a 0.05 M Tris-HC1 (pH 8.3) buffer is added 0.05 ml of 3 mM S-2222 solution, and after incubation at 37°C for about 4 minutes, an addition of 0.05 ml of 0.3 vial/ml bovine factor Xa, and a reaction at 37°C for 4 minutes, the - reaction was terminated by adding 0.05 ml of 50% acetic acid.

experimental DIC = assay: Effect on experimental DIC and MOF (endotoxin-induced); assay type: in vivo, SD-rats; conditions: Dose 100 μg/kg/min infusion, rat, 4 hours after endotoxin 10 mg/kg; for CPK: Table 5-1
Protocol: [III] Effect on experimental DIC
SD-rats, body weight of about 200 g, were starved overnight. Sodium pentobarbital was intraperioneally administered to anesthetize a rat, and then a cannula was inserted to the femoral vein, and the test substance dissolved in an injective 5% glucose solution was continually infused. Then, 10 minutes from the start of the injection, endotoxin (E. coli 0127:B8, Difco, U.S.) dissolved in physiological saline was injected through the tail vein to an amount of 10 mg/kg body weight, and 4 hours from the administration of endotoxin, the abdomen was opened, blood was obtained from the abdominal aorta, and platelets (Plt), fibrinogen (Fbg), fibrin degradation product (FDP), glutamic oxaloacetic transamirase (GOT), creatinine phosphokinase (CPK), and blood urin nitrogen (BUN) were measured.

| Compound | Effect on experimental pancreatitis Survival ratio(%) After 24 hours [1] | Effect on experimental pancreatitis Survival ratio(%) After 48 hours [1] | IC50 (human plasmin [2]) | IC50 (human plasmin [3]) | IC50 (human plasma kallikrein) | LD50 (in vivo) | Effect on experimental shock (Survival ratio (%) after 24 hours) (experimental shock) | IC50 (human urokinase) | IC50 (bovine factor Xa) | BUN (experimental DIC) | FDP (experimental DIC) | Fbg (experimental DIC) | GOT (experimental DIC) | Plat (experimental DIC) | CPK (experimental DIC) |
| --- | --- | --- | --- | --- | --- | --- | --- | --- | --- | --- | --- | --- | --- | --- | --- |
| NC[C@H]1CC[C@H](C(=O)NC(Cc2cccc(Oc3ccccc3)c2)C(=O)Nc2ccnc(Cl)c2)CC1 (mixture of isomers) [Compound 11] | 42.0% | 26.7% | 31 µM | 10 µM | 0.43 µM | > 100 mg/kg | 84% | 190 µM | – | – | – | – | – | – | – |
| NC[C@H]1CC[C@H](C(=O)NC(Cc2cccc(Oc3ccccc3)c2)C(=O)Nc2ccncc2)CC1 (mixture of isomers) [Compound 13] | – | – | – | – | – | 85 mg/kg | 79% | – | > 200 µM | – | – | – | – | – | – |
| NC[C@H]1CC[C@H](C(=O)NC(Cc2cccc(Oc3ccccc3)c2)C(=O)Nc2cccnc2)CC1 (mixture of isomers) [Compound 14] | 58.3% | 41.7% | 98 µM | 70 µM | 2 µM | 50 mg/kg | – | 250 µM | – | – | – | – | – | – | – |
| CC(=O)c1ccc(NC(=O)[C@H](Cc2cccc(Oc3ccccc3)c2)NC(=O)[C@H]2CC[C@H](CN)CC2)cc1 [Compound 7] | – | – | – | – | – | 60 mg/kg | 90% | – | > 200 µM | – | – | – | – | – | – |
| NC[C@H]1CC[C@H](C(=O)N[C@@H](Cc2ccc(OCc3ccccc3)cc2)C(=O)Nc2ccncn2)CC1 [Compound 15] | 50.0% | 25.0% | 15 µM | 6.8 µM | 5.1 µM | > 100 mg/kg | – | 110 µM | – | – | – | – | – | – | – |
| NC[C@H]1CC[C@H](C(=O)N[C@@H](Cc2ccc(OCc3ccccc3)cc2)C(=O)Nc2ccc(CCC(=O)O)cc2)CC1 [Compound 16] | 58.3% | 58.3% | 12 µM | 9 µM | 1.8 µM | > 100 mg/kg | – | 210 µM | – | – | – | – | – | – | – |
| NCC1CCC(C(=O)NC(Cc2ccccc2)C(=O)Nc2ccc(CC(=O)O)cc2)CC1 (stereo not drawn) [Compound 17] | – | – | 760 µM | 460 µM | 1.8 µM | – | – | 610 µM | > 1000 µM | 34 ± 11 mg/dL | 16 to 64 µg/mL | 143 ± 23 mg/dL | 146 ± 21 U/ml | 63 ± 2 x 10^4/μl | 22 ± 6 U/1 |
| CC(=O)c1ccc(NC(=O)[C@H](Cc2ccc(OCc3ccccn3)cc2)NC(=O)c2ccc(CN)cc2)cc1 [Compound 19] | 50.0% | 33.3% | 4.2 µM | 2.5 µM | 12 µM | – | – | – | – | 30 ± 4 mg/dL | 16 to 32 µg/mL | 147 ± 16 mg/dL | 219 ± 39 U/ml | 80 ± 11 x 10^4/μl | 19 ± 2 U/1 |
| CCOC(=O)CCc1ccc(NC(=O)C(Cc2ccc(OCc3ccccc3)cc2)NC(=O)C2CCC(CN)CC2)cc1 (stereo not drawn) [Compound 21] | 45.5% | 36.4% | – | – | – | 100 mg/kg | – | – | – | – | – | – | – | – | – |
| NCC1CCC(C(=O)NC(Cc2ccccc2)C(=O)Nc2ccc(C(=O)O)cc2)CC1 (stereo not drawn) [Compound 22] | – | – | > 1000 µM | 560 µM | 2.7 µM | > 100 mg/kg | – | > 1000 µM | > 400 µM | 30 ± 3 mg/dL | 32 to 64 µg/mL | 107 ± 18 mg/dL | 195 ± 35 U/ml | 62 ± 12 x 10^4/μl | 14 ± 3 U/1 |
| NCC1CCC(C(=O)NC(Cc2ccc(OCc3ccccc3)cc2)C(=O)Nc2ccncc2)CC1 (stereo not drawn) [Compound 23] | – | – | 120 µM | 140 µM | 360 µM | 60 mg/kg | 51% | > 1000 µM | – | – | – | – | – | – | – |
| CC(=O)c1ccc(NC(=O)[C@@H](Cc2ccc(OCc3ccccn3)cc2)NC(=O)C2CCC(CN)CC2)cc1 (stereo partly drawn) [Compound 24] | – | – | 78 µM | 240 µM | > 1000 µM | – | – | > 1000 µM | – | – | – | – | – | – | – |
| NCC1CCC(C(=O)N[C@H](Cc2ccc([N+](=O)[O-])cc2)C(=O)Nc2ccc(C(=O)c3ccccc3)cc2)CC1 (stereo partly drawn) [Compound 25] | – | – | 240 µM | 58 µM | > 250 µM | – | 70% | 170 µM | – | – | – | – | – | – | – |
